The data set can be described thus: Phase 1 clinical study / Study 101: plasma epinephrine pharmacokinetics. It is filed as in vivo. The conditions noted are these: human, 0.3 mg IM, read-out: mean baseline-corrected Cmax.

The record followed here is US20260108687A1 (Belhaven BioPharma Inc., priority 2024, published 2026).

Procedure: Twelve human subjects participated in the open-label, single sequence crossover study. […] The subjects returned for a safety follow up visit 3 to 5 days after the final treatment.
The dry powder formulation was administered via intranasal instillation once using a nasal device (APTAR). The IM solution and materials were supplied by the study site and prepared according to the local procedures. The study drug was administered at approximately the same time on each treatment day. There was a washout period of 20 days between the nasal doses administered as treatment A and treatment D. The subjects were admitted to the clinical site the day before each treatment administration and remained on site until at least 8 hours post-dose, or when applicable, until 24 hours post-dose of the specific treatment period. The study drug was administered after at least a 10 hour fast. A standardized meal was provided approximately 4 hours after dosing. […]
Noncompartmental analysis was performed on individual human subject plasma concentration-time data using nominal doses and actual blood sampling times. […] Baseline correction was accomplished using the average of the measured concentrations at nominal times of −60, −30, and 0 minutes before dosing. […]

With `CNC[C@H](O)c1ccc(O)c(O)c1` [Epinephrine IM, epinephrine], the Cmax – broadly, the peak of the concentration-time curve – is 184 µg/mL.
